# Entries after “also recorded” stand apart in the source; their conditions may differ. Like-named read-outs stand apart in the source and are kept apart here.
# Legend:
# [1] = tested on: Ofloxacin-induced persister cells of P. aeruginosa (PA14); test: Bactericidal activity against persister cells; assay type: cell-based, Pseudomonas aeruginosa; conditions: ATP up to 10 mM, persister cells 10^8 CFU/ml
# Method: Therefore, the 48-h-old-stationary phase was treated with Ofloxacin for 24 h to eradicate non-persister cells (FIG. 5A). Ofloxacin was used at 415 µM, corresponding to 30-fold the MIC for the PAO1 wild-type strain. The surviving persister cells were concentrated and redispersed in phosphate-buffered saline (PBS) to prevent persister cells from awakening from their metabolically repressed state.
# Persister cells of the P. aeruginosa (PA14) were isolated by treating 250 ml of stationary phase cultures with Ofloxacin (415 µM final concentration). After 24 h treatment, the samples were washed with PBS, and then persister cells were concentred in 10 ml of PBS. The number of persister cells was estimated by serially diluting to determine the colony-forming unit per millilitre (CFU/ml).
# All the bactericidal tests were performed on PBS without a carbon source to prevent persister cells from waking up from their low metabolic activity. Ofloxacin-induced persister cells were challenged with antimicrobial agents at the concentrations listed in the text. After the survival bacteria were washed 3× with PBS, the pellet was resuspended in 100 μL of PBS and then spread on an LB plate. The plate was incubated for 72 h at 37° C. before assessing growth.
# PAO1Cip21 = test: Disc diffusion susceptibility (cross-resistance); assay type: cell-based, Pseudomonas aeruginosa; conditions: isolate after 21 passages in subinhibitory Ciprofloxacin; 5 μg discs
# Method: In brief, glycerol stocks of each bacteria were streaked on LB plates and grown overnight at 37° C. An inoculum was prepared by diluting several individual colonies in PBS with a 0.5 McFarland Standard turbidity. The inoculum was then spread with sterile cotton swabs on Mueller Hinton agar plates supplemented with 5% sheep blood. Discs containing 5 μg of antipseudomonal drugs were dispensed on the surface of the plate. After 24 h incubation at 37° C., the inhibition zone was measured using a digital calliper.
# [2] = tested on: Acinetobacter baumannii (A. baumannii); conditions: ref [69], cited from earlier work
# P. aeruginosa (PAO1) = assay type: cell-based, Pseudomonas aeruginosa; conditions: 21 passages in sub-MIC dosing; MIC at passage n/initial MIC
# Method: The fold change in minimum inhibitory concentration (MIC) was measured as the ratio between the MIC at passage n/initial MIC.
# To test this idea, we repeated our serial passaging study with two biologically independent cultures of PAO1.
# Serial passage MICs were performed in 96-well microtiter panels. First, an aliquot of the well with the highest concentration permitting growth was taken and back diluted ( 1/100) in new media from inoculated microtiter panels. […] Panels were incubated according to CLSI guidelines, MICs were recorded, and the next inoculum was prepared from the well containing the highest drug concentration that identically allowed growth as described above. Twenty-one repeat passages were performed.
# [3] = tested on: stationary phase culture of P. aeruginosa (PA14); test: Intracellular reactive oxygen species (DCFH-DA); assay type: cell-based, Pseudomonas aeruginosa; conditions: relative to PBS-treated group
# Method: FIGS. 12A-12B. […] (FIG. 12A) Schematic showing how intracellular ROS was determined using the fluorescent probe 2′,7′-dichlorofluorescein diacetate (DCFH-DA).
# Cumulatively, the data in this section support that after transiting through OM, AuNC@ATP leads to the fusion of the inner leaflet of OM with the outer leaflet of the cytoplasmic membrane, which leads to bacteria death without cell lysis.
# DCFH-DA (2′,7′-dichlorofluorescein diacetate) dye was applied to test the intracellular ROS concentration, which could be cleaved by the intracellular non-specific esterase into the DCFH. DCFH, in the presence of ROS, would be further oxidized into fluorescent DCF (2′,7′-dichlorofluorescein). DCFH-DA in DMSO (10 μM) was added to the treated bacterial solution and further incubated at 37° C., 200 rpm for 15 min. After that, the bacterial cells were centrifuged at 8000 g for 5 min, washed three times with PBS, and resuspended in ultrapure water to the original volume (1 mL). The microplate reader was used to measure the concentration of the produced DCF at the excitation/emission wavelength of 488/525 nm. In this experiment, the fluorescence intensity of DCF directly reflects the amount of ROS generation. […] Finally, the relative ROS production level was calculated by normalizing the ROS level from the treated groups with the production level of the PBS-treated group.
# [4] = tested on: stationary phase culture of gram-negative bacteria; conditions: conventional antibiotics, refs [54-56]; cited from earlier work
# [5] = single injection, mice, ref [79], cited from earlier work
molecule,measurement,setting,value
"Nc1ncnc2c1ncn2[C@@H]1O[C@H](COP(=O)(O)OP(=O)(O)OP(=O)(O)O)[C@@H](O)[C@H]1O [ATP, adenosine triphosphate]",eradication of persister cells by ATP ligand alone,[1],No eradication was observed; also recorded: did not show bactericidal activity
NCC[C@H](O)C(=O)N[C@@H]1C[C@H](N)[C@@H](O[C@H]2O[C@H](CN)[C@@H](O)[C@H](O)[C@H]2O)[C@H](O)[C@H]1O[C@H]1O[C@H](CO)[C@@H](O)[C@H](N)[C@H]1O [Amikacin],inhibition zone diameter compared to the ancestor PAO1,PAO1Cip21,decrease in inhibition zone diameter
same,persister cells formed by A. baumannii in the presence of antibiotic,[2],0.07%
CO/N=C(\C(=O)N[C@@H]1C(=O)N2C(C(=O)[O-])=C(C[N+]3(C)CCCC3)CS[C@H]12)c1csc(N)n1 [Cefepime],inhibition zone diameter compared to the ancestor PAO1,PAO1Cip21,decrease in inhibition zone diameter
CC(C)(O/N=C(\C(=O)N[C@@H]1C(=O)N2C(C(=O)[O-])=C(C[n+]3ccccc3)CS[C@H]12)c1csc(N)n1)C(=O)O [Ceftazidime],inhibition zone diameter compared to the ancestor PAO1,PAO1Cip21,decrease in inhibition zone diameter
O=C(O)c1cn(C2CC2)c2cc(N3CCNCC3)c(F)cc2c1=O [Ciprofloxacin],resistance development: increase in MIC,P. aeruginosa (PAO1),more than 250 fold
C[C@@H](O)[C@H]1C(=O)N2C(C(=O)O)=C(S[C@@H]3CN[C@H](C(=O)N(C)C)C3)[C@H](C)[C@H]12 [Meropenem],inhibition zone diameter compared to the ancestor PAO1,PAO1Cip21,decrease in inhibition zone diameter
CC1COc2c(N3CCN(C)CC3)c(F)cc3c(=O)c(C(=O)O)cn1c23 (centres unmarked) [Ofloxacin],resistance development: increase in MIC,P. aeruginosa (PAO1),> 1500 fold
same,ROS production,[3],1.2 fold-change
"Cn1c2cccc(=O)c-2nc2ccccc21 [PYO, pyocyanin]",increase of persister cells in the presence of PYO,[2]; with amikacin,4 fold
same,increase of persister cells in the presence of PYO,[2]; with carbenicillin,3 fold
NC[C@H]1O[C@H](O[C@H]2[C@H](O)[C@@H](O[C@H]3O[C@H](CO)[C@@H](O)[C@H](N)[C@H]3O)[C@H](N)C[C@@H]2N)[C@H](N)C[C@@H]1O [Tobramycin],inhibition zone diameter compared to the ancestor PAO1,PAO1Cip21,decrease in inhibition zone diameter
same,resistance development: increase in MIC,P. aeruginosa (PAO1),more than 30 fold
C[C@H]1[C@H](NC(=O)/C(=N\OC(C)(C)C(=O)O)c2csc(N)n2)C(=O)N1S(=O)(=O)O [aztreonam],inhibition zone diameter compared to the ancestor PAO1,PAO1Cip21,decrease in inhibition zone diameter
CC1(C)S[C@@H]2[C@H](NC(=O)C(C(=O)O)c3ccccc3)C(=O)N2[C@H]1C(=O)O (some centres unmarked) [carbenicillin],persister cells formed by A. baumannii in the presence of antibiotic,[2],0.02%
Colistin,inhibition zone diameter compared to the ancestor PAO1,PAO1Cip21,decrease in inhibition zone diameter
same,cell lysis,[4],cause bacteria cell lysis
Polymyxin-B,inhibition zone diameter compared to the ancestor PAO1,PAO1Cip21,decrease in inhibition zone diameter
tobramycin sulphate,LD50,[5]; IP,262 mg/kg
same,LD50,[5]; IV,77 mg/kg

# From patent US20250177558A1, “Functionalized Nanoclusters and Their Use in Treating Bacterial Infections” (priority 2022, published 2025)
